Source: patent US12065427B2, “Heterocyclic compounds capable of activating STING” (BOEHRINGER INGELHEIM INTERNATIONAL GMBH, priority 2021, dated 2024)
In brackets after ≈: the same amount, converted by molar mass.

Key:
STING H232R-variant = molecular target: T1, STING H232R-variant (Homo sapiens, UniProt Q86WV6, H232R); assay: IRF-inducible SEAP reporter assay in THP1-Blue ISG cells, STING H232R-variant; type: cell-based; conditions: STING H232R-variant (WT), 24 hours incubation
T1 construct: expressed in transfected cells; host or cells: THP1-Blue ISG hSTING KO clone, retroviral MSCV-ires-GFP-Blasti
T1 sequence (Q86WV6 whole entry H232R): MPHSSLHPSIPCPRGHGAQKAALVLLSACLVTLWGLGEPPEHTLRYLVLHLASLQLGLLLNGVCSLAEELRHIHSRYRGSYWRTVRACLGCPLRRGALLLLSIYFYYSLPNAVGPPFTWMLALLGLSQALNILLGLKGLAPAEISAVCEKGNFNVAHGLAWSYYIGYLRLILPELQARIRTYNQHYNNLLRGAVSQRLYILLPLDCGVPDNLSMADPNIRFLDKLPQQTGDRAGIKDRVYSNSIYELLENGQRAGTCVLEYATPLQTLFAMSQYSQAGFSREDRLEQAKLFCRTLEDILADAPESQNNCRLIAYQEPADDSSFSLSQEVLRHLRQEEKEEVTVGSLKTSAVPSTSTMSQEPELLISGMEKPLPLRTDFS
Outline: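 THP1-Blue ISG cells with endogenous STING deleted by CRISPR and retrovirally re-expressing human STING H232R; 8-point compound dilutions, 0.5% DMSO final, 24 h at 37 °C. SEAP read by Quanti-Blue, 30 min, OD 620 nm; EC50 and Hill slope from four-parameter fit.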

STING HAQ-variant = molecular target: T2, STING HAQ-variant (Homo sapiens, UniProt Q86WV6, G230A/H232R/R293Q/R71H); assay: IRF-inducible SEAP reporter assay in THP1-Blue ISG cells, STING HAQ-variant; type: cell-based; conditions: STING HAQ-variant (parental or re-introduced), 24 hours incubation
T2 construct: parental THP1-Blue™ ISG cell lines (which express endogenously HAQ); host or cells: THP1-Blue ISG (parental, endogenous HAQ) or STING-KO clone re-transduced with HAQ (MSCV-ires-GFP-Blasti)
T2 sequence (Q86WV6 whole entry R71H/G230A/H232R/R293Q): as the sequence (Q86WV6 whole entry H232R) above, with R71H, G230A, R293Q counted along it
Outline: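 THP1-Blue ISG cells expressing STING HAQ, either endogenously (parental) or re-introduced after CRISPR knockout, were seeded at 10000 cells/well. They received 8-point compound dilutions (0.5% DMSO final) for 24 hours at 37° C. IRF-driven SEAP was read with Quanti-Blue at OD 620 nm after 30 minutes, and EC50 came from four-parameter fits.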

[1] = system: Human STING (hSTING, residues 155-341); assay: Interaction with hSTING as determined by Differential Scanning Fluorimetry (DSF); type: binding; conditions: 100 μM test compounds, 5 μM target protein
Outline: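 Thermal shift of hSTING (residues 155-341, 5 μM) with test compounds at 100 μM in 20 mM Tris, 150 mM NaCl, pH 7.5, using 5× SYPRO Orange. Ramped 25 to 95 °C at 0.5 °C per cycle (15 s/cycle) by real-time PCR fluorescence. Tm from duplicate melting curves, averaged.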

[2] = Solubility measurements (HTS) at pH 6.8; type: physicochemical; conditions: kinetic from dmso stock; aqueous McIlvaine buffer pH 6.8, 24 h at room temperature, from 10 mM DMSO stock; read-out: Soblubility
Protocol: Aqueous solubilities were determined from 10 mM stock solutions of the compounds in DMSO diluted to a final concentration of 250 μM with aqueous McIlvaine buffer at pH 6.8, or with acetonitrile/water (1:1) as a reference. Samples were shaken for 24 h at room temperature in 96-well plates (Whatman Uniplate® 96 wells, 750 μL, polypropylene, round bottom). The plate was then centrifuged at 3,000 rpm for 2 min. 250 μL of each sample were transferred to a Millipore MultiScreenHTS filter plate with a polycarbonate membrane, pore size 0.45 μm. Filtrates were collected by centrifugation at 3,000 rpm for 2 min. The dissolved concentrations were determined by UPLC/UV (Ultra-Performance Liquid Chromatography/ultraviolet) on a Waters ACQUITY UPLC® SQD system equipped with a Waters ACQUITY UPLC® BEH 2.1×50 mm C18 column, particle size 1.7 μm, using a short gradient with water/0.1% formic acid as solvent A and acetonitrile/0.1% formic acid as solvent B (5 to 95% B with 1.7 min total cycle time). Compounds signals were measured with a photodiode array UV detector operated at 254 nm. Solubilities were determined with a one point calibration by comparing peak areas relative to the reference standard using Waters Empower software.

STING R293Q-variant = molecular target: T3, STING R293Q-variant (Homo sapiens, UniProt Q86WV6, H232R/R293Q); assay: IRF-inducible SEAP reporter assay in THP1-Blue ISG cells, STING R293Q-variant; type: cell-based; conditions: 24 hours incubation
T3 construct: expressed in transfected cells; host or cells: THP1-Blue ISG hSTING KO clone, retroviral MSCV-ires-GFP-Blasti
T3 sequence (Q86WV6 whole entry H232R/R293Q): as the sequence (Q86WV6 whole entry H232R) above, with R293Q counted along it
Outline: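 THP1-Blue ISG cells with endogenous STING knocked out (CRISPR) and retrovirally re-expressing human STING R293Q; 10000 cells/well, compound 24 h at 37 °C, 0.5% DMSO final. SEAP read by Quanti-Blue (30 min, OD 620 nm); EC50 and Hill slope from 8-point four-parameter fit.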

in vitro = conditions: human, Caco-2, pH 7.4
Protocol: Cellular Permeability Measurements
(§1) Caco-2 cells were obtained from Leibniz Institute DSMZ-German Collection of Microorganisms and Cell Cultures (Braunschweig, Germany) and cultured in DMEM (Dulbecco's modified Eagle medium) containing (in final concentrations) 10% FCS (fetal calf serum), 1% NEAA (non-essential amino acids), 2 mM Glutamin, 100 U/mL Penicillin and 100 μg/mL Streptomycin. Caco-2 cells were seeded either onto 24-well Transwell inserts (Corning, #3379) for bidirectional permeability assays at a density of 160,000 cells/cm^2 and cultured for 3 weeks, with media change on every second day.
(§2) For bidirectional permeability assays 10 mM DMSO stock solutions were diluted in transport buffer (final concentrations: 128.13 mM NaCl, 5.36 mM KCl, 1 mM MgSO4, 1.8 mM CaCl2, 4.17 mM NaHCO3, 1.19 mM Na2HPO4, 0.41 mM NaH2PO4, 15 mM 2-[4-(2-hydroxyethyl)piperazin-1-yl]ethanesulfonic acid (HEPES), 20 mM glucose, pH 7.4) containing 0.25% bovine serum albumin to a final concentration of 10 μM of the test compounds and added to the apical or basal compartment. Cells were incubated with the compounds for up to 2 h. Samples from the opposite compartment were taken at different timepoints.
(§3) Compound concentrations in the compartments were quantified using a RapidFire-based high-throughput HPLC/MS/MS system (high performance liquid chromatography/mass spectrometry; Bio-Cius) that was customized to a fully automated and flexible platform, termed RIAS. In this modified setup, the sample was aspirated by a vacuum pump into a 10 μL sample loop for 250 ms and flushed onto a C4 cartridge (3.8 μL bed volume; Bio-Cius) with the aqueous mobile phase (99.9% water, 0.09% formic acid, and 0.01% TFA; flow rate 1.5 mL/min). Prior to bioanalysis samples were spiked with internal standard solution and diluted with acetonitrile (ACN) for protein precipitation. Measurement was operated in multiplereaction monitoring (MRM) mode. Quantification was performed using external calibration. A solid-phase extraction step retained the analyte for 3000 ms while interfering matrix (e.g., buffer components) was removed. With a simple step gradient, the analyte was back-eluted from the cartridge for 3,000 ms with the organic mobile phase (99.9% acetonitrile/methanol [1:1, v:v], 0.09% formic acid, and 0.01% TFA) and flushed into the mass spectrometer at a flow rate of 1.25 mL/min. Afterwards, the cartridge was re-equilibrated with the aqueous mobile phase for 500 ms (flow rate 1.5 mL/min).
(§4) Apparent permeability coefficients in the apical to basal direction (Papp,AB) and in the basal to apical direction (Papp,BA) and efflux ratios were calculated as follows: Papp,AB=QAB/(C0·s·t) Papp,BA=QBA/(C0·s·t) Efflux ratio=Papp,BA/Papp,AB
(§5) where Q is the amount of compound recovered in the receiver compartment after the incubation time t, C0 the initial compound concentration given to the donor compartment, and s the surface area of the Transwell inserts. […] In addition, transepithelial electrical resistance (TEER) values are measured for each plate before the permeability assay, and total recovery in donor and receiver compartments was determined for each compound.

STING R232H-variant = molecular target: T4, STING R232H-variant (Homo sapiens, UniProt Q86WV6); assay: IRF-inducible SEAP reporter assay in THP1-Blue ISG cells, STING R232H-variant; type: cell-based; conditions: 24 hours incubation
T4 construct: expressed in transfected cells; host or cells: THP1-Blue ISG hSTING KO clone, retroviral MSCV-ires-GFP-Blasti
T4 sequence (Q86WV6 whole entry, stated change not applied): as the sequence (Q86WV6 whole entry H232R) above, with R232H counted along it
Outline: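 THP1-Blue ISG cells, endogenous STING knocked out by CRISPR and re-expressing hSTING R232H, with IRF-inducible SEAP reporter. Treated 24 h at 37 °C with 8-point compound dilutions (0.5% DMSO final); SEAP read by Quanti-Blue OD 620 nm after 30 min. EC50 from four-parameter fit.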

STING AQ-variant = molecular target: T5, STING AQ-variant (Homo sapiens, UniProt Q86WV6, G230A/H232R/R293Q); assay: IRF-inducible SEAP reporter assay in THP1-Blue ISG cells, STING AQ-variant; type: cell-based; conditions: 24 hours incubation
T5 construct: expressed in transfected cells; host or cells: THP1-Blue ISG hSTING KO clone, retroviral MSCV-ires-GFP-Blasti
T5 sequence (Q86WV6 whole entry G230A/H232R/R293Q): as the sequence (Q86WV6 whole entry H232R) above, with G230A, R293Q counted along it
Outline: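 THP1-Blue ISG cells with endogenous STING knocked out by CRISPR and re-expressing the human STING AQ variant; compounds in 8-point dilution, final DMSO 0.5%, 24 h at 37 °C. SEAP read after 30 min with Quanti-Blue as OD 620 nm; EC50 and Hill slope from four-parameter fits.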

[3] = Cellular permeability measurements, bidirectional Caco-2 assay; conditions: human, Caco-2, pH 7.4
Protocol: Cellular Permeability Measurements
as §1, §2, §3, §4, §5

Compound	EC50 (STING H232R-variant) [nM]	EC50 (STING HAQ-variant) [nM]	solubility kinetic at 24 h [2] [µg/mL]	EC50 (STING R293Q-variant) [nM]	Papp A→B at 10 μM (in vitro) [×10⁻⁶ cm/s]	efflux ratio at 10 μM (in vitro)	EC50 (STING R232H-variant) [nM]	EC50 (STING AQ-variant) [nM]	thermal shift (ΔTm) [1] [K]	efflux ratio at 10 μM [3]
Cc1cccc2c(-c3cccc4nn(C)cc34)nn(-c3ccc(N4CCC(C(=O)O)CC4)nc3)c12 [Example #57, 1-(5-(2′,7-dimethyl-1H,2′H-[3,4′-biindazol]-1-yl)pyridin-2-yl)piperidine-4-carboxylic acid]	200	700	80 (≈ 171 µM)	600	15	1.2	200	300	17	
Cc1cccc2c(-c3cccc4nn(C)cc34)nn(-c3ccc(N4CC5C(C4)C5C(=O)O)nc3)c12 (stereo not shown) [Example #59, 3-(5-{2′,7-dimethyl-1H,2′H-[3,4′-biindazol]-1-yl}pyridin-2-yl)-3-azabicy-clo[3.1.0]hexane-6-car-boxylic acid]	100	200	66 (≈ 142 µM)	200	11	2.5	100	100	21	
Cn1cc2c(-c3nn(-c4ccc(N5CCC(C(=O)O)CC5)nc4)c4c(C(F)(F)F)cccc34)cccc2n1 [Example #67, 1-{5-[2′-methyl-7-(trifluo-romethyl)-1H,2′H-[3,4′-biindazol]-1-yl]pyridin-2-yl}piperidine-4-carboxylic acid]	700	2200	82 (≈ 158 µM)	2100	16	1.2	800	2300	23	
Cc1cccc2c(-c3cccc4nn(C)cc34)nn(-c3ccc(N4CC5(COC5)C4)nc3)c12 [compound 3, 2′,7-dimethyl-1-(6-{2-oxa-6-azaspiro[3.3]heptan-6-yl}pyridin-3-yl)-1H,2′H-3,4′-biindazole]		3000							20	0.6
Cn1cc2c(-c3nn(-c4ccc(N5CC6C(C5)C6C(=O)O)nc4)c4c(Cl)cccc34)cccc2n1 (stereo not shown) [compound 26, 3-(5-{7-chloro-2′-methyl-1H,2′H-[3,4′-biindazol]-1-yl}pyridin-2-yl)-3-azabicy-clo[3.1.0]hexane-6-carbox-ylic acid]	200	900	60 (≈ 124 µM)	600			200	700		

Second part, led by results:

EC50 (STING H232R-variant) [nM]	EC50 (STING HAQ-variant) [nM]	solubility kinetic at 24 h [2] [µg/mL]	EC50 (STING R293Q-variant) [nM]	Papp A→B at 10 μM (in vitro) [×10⁻⁶ cm/s]	efflux ratio at 10 μM (in vitro)	EC50 (STING R232H-variant) [nM]	EC50 (STING AQ-variant) [nM]	Compound	thermal shift (ΔTm) [1] [K]	efflux ratio at 10 μM [3]
200	800	63 (≈ 131 µM)	600			600	700	COc1cccc2c(-c3cccc4nn(C)cc34)nn(-c3ccc(N4CC5C(C4)C5C(=O)O)nc3)c12 (stereo not shown) [compound 29, 3-(5-{7-methoxy-2′-methyl-1H,2′H-[3,4′-biindazol]-1-yl}pyridin-2-yl)-3-azabicyclo[3.1.0]hex-ane-6-carboxylic acid]	22	
	6100	42 (≈ 92.4 µM)		14	0.9			Cc1cccc2c(-c3cccc4c3OCO4)nn(-c3ccc(N4CC5C(C4)C5C(=O)O)nc3)c12 (stereo not shown) [compound 30, 3-(5-[3-(2H-1,3-benzodi-oxol-4-yl)-7-methyl-1H-in-dazol-1-yl]pyridin-2-yl}-3-azabicyclo[3.1.0]hexane-6-carboxylic acid]	20	
	3100	49 (≈ 106 µM)		11	1.2			Cc1cccc2c(-c3cccc4cnccc34)nn(-c3ccc(N4CCC(C(=O)O)CC4)nc3)c12 [compound 62, 1-{5-[3-(isoquinolin-5-yl)-7-methyl-1H-indazol-1-yl]pyridin-2-yl}piperidine-4-carboxylic acid]	20	
300	1400	70 (≈ 146 µM)	700	14	1	300	700	Cc1cc(C)c2c(c1)c(-c1cccc3nn(C)cc13)nn2-c1ccc(N2CC3C(C2)C3C(=O)O)nc1 (stereo not shown) [compound 69, 3-(5-{2′,5,7-trimethyl-1H,2′H-[3,4′-biindazol]-1-yl}pyridin-2-yl)-3-azabicy-clo[3.1.0]hexane-6-car-boxylic acid]		
